Results on 5 compounds are retold here after patent US20250269022A1, “ASSESSING AND TREATING CANCER” (Mayo Foundation for Medical Education and Research, priority 2021, published 2025).

Entries after “also recorded” stand apart in the source; their conditions may differ. Read-outs that look alike come from different tables or passages of the source.

Data set [1] has as its system JeKo-1 cells. In words: CART19 killing of luciferase+ JeKo-1 cells in combination with small molecules. In kind it is cell-based. The procedure:
CART19 cells were cultured in combination with different molecules at the indicated ratios/concentration, and in combination with the luciferase+ JeKo-1 cells at the indicated E:T ratios. Killing was determined after 24 hours using bioluminescence imaging.

The test system of a further data set is JeKo1 cell line. In words: In vivo JeKo1 xenograft with navitoclax-treated CART cells. Further details: species or system NSG mice. The source says:
NSG mice were engrafted with the luciferase positive, CD19+ JeKo1 cell line I.V. One week later, mice underwent bioluminescence imaging (BLI) to determine the level of the disease and then randomized to treatment with CART cells. Mice then underwent weekly BLI to measure disease burden and were followed for survival.

For data set [2], the system named is CART cells. In words: Proliferation assay of CART cells co-cultured with JeKo-1 cells, with navitoclax or venetoclax. The class given is cell-based. The source says:
Longitudinal navitoclax treatment of CART cells. […] Longitudinal treatments included two parts.
For proliferation assays, effector cells (CART cells), and irradiated target cells (CD19+ JeKo 1 cells) were co-cultured at different ratios and with different concentrations of the compounds. Cells were co-cultured for 3-5 days, and then cells were harvested and surface staining with antihCD3 (eBioscience, San Diego, CA, USA) and LIVE/DEAD™ Fixable Aqua Dead Cell Stain Kit (Invitrogen, Carlsbad, CA, USA) was performed.

Data set [3] relates to CART cells. In words: EdU assay of cycling CART cells. In kind it is cell-based. The following applies: navitoclax treated. Here is the method:
Longitudinal navitoclax treatment of CART cells. […] […] Longitudinal treatments included two parts. […] Cells were co-cultured for 3-5 days, and then cells were harvested and surface staining with […]3 (eBioscience, San Diego, CA, USA) and LIVE/DEADTM Fixable Aqua Dead Cell Stain Kit (Invitrogen, Carlsbad, CA, USA) was performed.

The test system of data set [4] is JeKo-1 cells. In words: Cytotoxicity (killing) assay of CART cells against luciferase+ JeKo-1 cells, with senolytics. The procedure:
D8 CART cells were treated with navitoclax (0 μM, 0.5 μM, 1 μM, 2 μM, or 4 μM) for 24 hours and then divided into two groups. In the first group, navitoclax was washed away for proliferation and cytotoxicity assays. In the second group, navitoclax treatment was maintained during proliferation and cytotoxicity assays.
Longitudinal navitoclax treatment of CART cells. D15 and D22 CART cells were generated to mimic possible dysfunctions (e.g., exhaustion, senescence, etc.) that CART cells can develop. Serial activation of CART cells can induce T cell senescence during CART cell generation. This experiment was designed to selectively remove senescing CART cells during CART cell proliferation. During this experiment CART cells were pretreated with navitoclax, the proliferation, EDU, and cytotoxicity assays were done in the absence of navitoclax. Longitudinal treatments included two parts. Part I was a typical CART cell production protocol except for addition of navitoclax at D7 for 24 hours. Briefly, CART cells were activated on day 1, transduced on day 2, and debeaded on day 6. On day 7, CART cells were treated with navitoclax (0 μM, 0.125 μM, 0.25 μM, 0.5 μM, 0.75 μM, 1 μM, or 2 μM). On day 8, the navitoclax was washed away, and the CART cells were prepared for cytotoxicity assays and proliferation assays. For part II, JeKo-1 UDT was added to the CART cells on days 8 and 10, the media was replaced on day 12, and navitoclax was added on day 13. On day 14, the navitoclax was washed away, and the CART cells were prepared for cytotoxicity assays and proliferation assays or JeKo-1 IR was added and the CART cells were prepared for an EdU assay. The CART cells were provided several resting times after being activated by JeKo-1 to provide plenty of resting time to differentiate reversible exhaustion and irreversible T cell senescence. This assay focuses on D8 (freshly generated CART cells), D15 (D8 cells activated with JeKo-1 for a week as indicated as part II in the figure), and D22 CART cells (additional activation summarized in part II on D15 CART cells).
For killing assays, the CD19+ Luciferase+ mantle cell lymphoma cell like JeKo-1 cells were incubated with effector T cells for 24, 48, or 72 hours. Killing was calculated by bioluminescence imaging on a Xenogen IVIS-200 Spectrum camera (PerkinElmer, Hopkinton, MA, USA) as a measure of residual live cells. Samples were treated with 1 μL D-luciferin (30 μg/mL) per 100 μL sample volume (Gold Biotechnology, St. Louis, MO, USA), for 10 minutes prior to imaging.

A further data set has as its target T1, PD-L1 (Homo sapiens, UniProt Q9NZQ7).
T1 construct: These PPP preparations from the peripheral blood of untreated CLL patients are the source of the samples called CLL-derived EVs; from tissue; host or cells: extracellular vesicles in platelet-poor plasma of untreated CLL patients, co-cultured with CART19 cells and then JeKo-1 cells
In words: CART19 antigen-specific proliferation with PD-L1 blockade in presence of PD-L1high CLL-derived EVs. The class given is cell-based. The following applies: PD-L1high CLL-derived EVs 100:1, 6 hours, JeKo-1 at E:T 5:1, antibody 20 μg/mL. Here is the method: CART19 and JeKo-1 or JeKo-1 cells irradiated at 120 Gy were cocultured at a 1:1 ratio with or without CLL-derived EVs. T cells for functional assays were cultured in T cell medium containing X-VIVO 15 (Lonza, Walkersville, MD, USA), 10% human serum albumin (Innovative Research, Novi, MI, USA), and 1% penicillin-streptomycin-glutamine (Gibco, Gaithersburg, MD, USA). EVs were cocultured with CART19 cells at 100:1, 10:1, 5:1, and 1:1 EV/CART cell ratios using three biological replicates of CLL-derived EVs at 37° C., 5% CO2, and then co-cultured with primary CLL cells or JeKo-1 cells as indicated in the specific experiment. Cell supernatant was collected at 24 hours, and cells were analyzed by flow cytometry. To assess killing and proliferation, UTD T cells, CART19 cells, and CART19 cells co-cultured with CLL-derived EVs at a 100:1 EV/CART cell ratio were incubated at 37° C., 5% CO2 for 6 hours before adding JeKo-1 target cells. […] Cells were analyzed by flow cytometry after 48 hours of incubation.

T1 sequence (Q9NZQ7 19-290): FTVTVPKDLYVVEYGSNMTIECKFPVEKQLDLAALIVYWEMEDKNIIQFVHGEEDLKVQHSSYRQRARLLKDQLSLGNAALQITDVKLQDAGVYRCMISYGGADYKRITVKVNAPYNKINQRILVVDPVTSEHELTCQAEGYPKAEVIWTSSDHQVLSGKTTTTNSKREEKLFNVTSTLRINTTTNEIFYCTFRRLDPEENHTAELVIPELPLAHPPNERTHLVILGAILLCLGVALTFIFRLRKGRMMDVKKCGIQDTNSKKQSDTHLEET

In the case of `O=S(=O)(c1cccc2cnccc12)N1CCCNCC1` [fasudil], the “CART19 antigen specific killing” value in the data set on JeKo-1 cells [1] (combination with CART19 cells, 24 hours, bioluminescence) is “improved CART19 antigen specific killing”.

For the compound `CC1(C)CCC(c2ccc(Cl)cc2)=C(CN2CCN(c3ccc(C(=O)NS(=O)(=O)c4ccc(N[C@H](CCN5CCOCC5)CSc5ccccc5)c(S(=O)(=O)C(F)(F)F)c4)cc3)CC2)C1` [navitoclax], in the data set on JeKo1 cell line (D22 CART cells treated with or without navitoclax, 22 days after CART cell transplantation), the “Tumor burden of mice” value was “not different”. Further, the “Antitumor activity of CART cells in vivo” value in the data set with JeKo1 cell line (navitoclax pretreatment of CART cells) is “did not increase antitumor activity; also recorded: did not improve CART cell activity”. For the same compound, in the data set on CART cells [2] (CART cells co-cultured with JeKo-1 in presence of drug), the “CART cell proliferation against JeKo-1 in combination with senolytic” value is on record as “decreased CART cell proliferation”. In the data set on CART cells [2] (D8 CART cells continuously treated with navitoclax, co-culture with JeKo-1, vs untreated CART cells), the CART cell proliferation result is listed as “decreased proliferation”. In addition, the “D22 CART cell proliferation” value in the data set on CART cells [2] (longitudinal navitoclax treatment vs navitoclax untreated CART cells, in vitro) was “increase in D22 CART proliferation”. Further, the “CART cell proliferation over time” value in the data set on CART cells [2] (longitudinal navitoclax treatment, D8, D15, D22) was “decreased proliferation of CART cells through time; also recorded: decreases over time”. The “EdU positivity of CART cells” value was “similar” in the data set on CART cells [3] (D8 and D22 CART cells); “decreased” in the data set on CART cells [3] (D15 CART cells). Further, in the data set with JeKo-1 cells [4] (0:1 E:T ratio (no CART)), the “Cytotoxicity of drug alone against JeKo-1” value is recorded as “cytotoxic against JeKo-1”. The “CART cell cytotoxicity against JeKo-1 in combination with senolytic” value with JeKo-1 cells [4] (D8 CART cells co-cultured with JeKo-1 and drug, 48 hours) was “increased CART cell cytotoxicity”. The “CART cell cytotoxicity against JeKo-1” value in the data set with JeKo-1 cells [4] (navitoclax maintained in assay, higher navitoclax concentrations) is recorded as “decreased CART cell cytotoxicity”; in the data set on JeKo-1 cells [4] (navitoclax pre-treatment 24 hours, assay without navitoclax), “did not result in different cytotoxicity”.

`CC(C)(CO)[C@@H](O)C(=O)NCCC(=O)NCCSSCCNC(=O)CCNC(=O)[C@H](O)C(C)(C)CO` [panthethine, D-pantethine]: the “CART19 antigen specific killing” value with JeKo-1 cells [1] was “improved CART19 antigen specific killing”.

`CC1(C)CCC(CN2CCN(c3ccc(C(=O)NS(=O)(=O)c4ccc(NCC5CCOCC5)c([N+](=O)[O-])c4)c(Oc4cnc5[nH]ccc5c4)c3)CC2)=C(c2ccc(Cl)cc2)C1` [venetoclax]: in the data set on JeKo-1 cells [4], the “CART cell cytotoxicity against JeKo-1 in combination with senolytic” value is reported as “increased CART cell cytotoxicity”.

atezolizumab [anti-PD-L1 antibody]: the “Reversal of EV-mediated inhibition of CART19 antigen-specific proliferation” value with PD-L1 was “did not improve”; with PD-L1 (listed as PD-L1 blocking antibodies), “no statistically significant reversal”.
